{"source": "ChEMBL document CHEMBL5649167", "about": "“The SUV4-20 inhibitor A-196 verifies a role for epigenetics in genomic integrity” (Nat Chem Biol, 2017)", "key": {"[1]": {"target": "Histone-lysine N-methyltransferase KMT5C (Homo sapiens, UniProt Q86Y97)", "sequence (Q86Y97 whole entry)": "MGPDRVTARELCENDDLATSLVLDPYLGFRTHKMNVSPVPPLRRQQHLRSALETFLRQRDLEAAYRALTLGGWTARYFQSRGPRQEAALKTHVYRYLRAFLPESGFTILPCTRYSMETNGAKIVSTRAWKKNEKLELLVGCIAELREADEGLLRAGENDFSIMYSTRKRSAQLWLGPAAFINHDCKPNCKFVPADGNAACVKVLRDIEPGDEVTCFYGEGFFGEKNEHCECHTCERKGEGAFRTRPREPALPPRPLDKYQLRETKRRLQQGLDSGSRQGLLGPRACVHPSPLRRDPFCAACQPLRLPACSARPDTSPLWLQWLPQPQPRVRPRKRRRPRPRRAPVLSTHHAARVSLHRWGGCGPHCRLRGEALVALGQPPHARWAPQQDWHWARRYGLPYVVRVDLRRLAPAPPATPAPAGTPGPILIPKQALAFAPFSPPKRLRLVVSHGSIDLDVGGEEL", "assay": "Inhibition of human SUV420H2 using Biotin-tagged H4K20me1 and [3H-SAM] as substrate incubated for 2 hrs by scintillation proximity assay"}, "PC-3": {"test_system": "PC-3", "assay": "Antiproliferative activity against human PC-3 cells assessed as change in number of nuclei incubated for 72 hrs by Hoechst staining based high content microscopy", "assay_type": "functional, cell-based", "settings": "PC-3, 72 h"}, "[2]": {"assay": "Inhibition of human 5-HT3 receptor expressed in HEK293T cells at 10 uM relative to control", "settings": "HEK-293T"}, "Adenosine receptor A3": {"target": "T1, Adenosine receptor A3 (Homo sapiens, UniProt P0DMS8)", "T1 sequence (P0DMS8 whole entry)": "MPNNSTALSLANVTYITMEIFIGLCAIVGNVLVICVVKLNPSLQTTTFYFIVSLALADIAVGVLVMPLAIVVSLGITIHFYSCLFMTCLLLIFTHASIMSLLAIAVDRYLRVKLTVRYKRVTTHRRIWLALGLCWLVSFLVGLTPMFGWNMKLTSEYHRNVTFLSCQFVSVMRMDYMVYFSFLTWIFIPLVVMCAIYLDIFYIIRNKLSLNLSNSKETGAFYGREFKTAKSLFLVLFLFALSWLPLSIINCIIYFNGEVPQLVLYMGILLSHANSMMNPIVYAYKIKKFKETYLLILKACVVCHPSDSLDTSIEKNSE", "assay": "Inhibition of human Adenosine receptor A3 assessed as inhibition constant"}, "[3]": {"assay": "Inhibition of H4K20me3 in human PC-3 cells assessed as decrease in methylation level incubated for 72 hrs by Hoechst staining based high content microscopy", "assay_type": "functional, cell-based", "settings": "PC-3, 72 h"}, "[4]": {"assay": "Inhibition of H4K20me1 in human U2OS cells assessed as increase in methylation level incubated for 72 hrs by Hoechst staining based high content microscopy", "assay_type": "functional, cell-based"}, "[5]": {"assay": "Inhibition of H4K20me3 in human U2OS cells assessed as decrease in methylation level incubated for 72 hrs by Hoechst staining based high content microscopy", "assay_type": "functional, cell-based"}, "Substance-K receptor": {"target": "T2, Substance-K receptor (Homo sapiens, UniProt P21452)", "T2 sequence (P21452 whole entry)": "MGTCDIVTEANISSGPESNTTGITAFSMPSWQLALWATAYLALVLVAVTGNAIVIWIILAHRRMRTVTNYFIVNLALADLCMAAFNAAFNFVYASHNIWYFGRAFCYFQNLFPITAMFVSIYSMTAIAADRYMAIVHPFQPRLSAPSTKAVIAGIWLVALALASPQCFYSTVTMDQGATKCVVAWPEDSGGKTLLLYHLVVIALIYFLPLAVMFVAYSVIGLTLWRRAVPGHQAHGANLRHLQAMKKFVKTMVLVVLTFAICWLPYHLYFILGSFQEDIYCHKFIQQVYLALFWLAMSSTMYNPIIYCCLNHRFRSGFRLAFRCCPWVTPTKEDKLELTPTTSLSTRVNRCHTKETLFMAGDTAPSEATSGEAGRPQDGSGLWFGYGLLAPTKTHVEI", "assay": "Inhibition of human Substance-K receptor assessed as inhibition constant"}, "B-cell [6]": {"test_system": "B-cell", "assay": "Induction of DNA repair in mouse B cells assessed as inhibition in ability of splenic cells to switch from IgM to IgG3 at 1 uM incubated for 4 days in the presence of LPS by flow cytometry analysis (Rvb=5.71%)", "assay_type": "functional", "settings": "96 h, time 4 day"}, "[7]": {"target": "Histone-lysine N-methyltransferase KMT5B (Homo sapiens, UniProt Q4FZB7)", "sequence (Q4FZB7 whole entry, the tested form may be a part)": "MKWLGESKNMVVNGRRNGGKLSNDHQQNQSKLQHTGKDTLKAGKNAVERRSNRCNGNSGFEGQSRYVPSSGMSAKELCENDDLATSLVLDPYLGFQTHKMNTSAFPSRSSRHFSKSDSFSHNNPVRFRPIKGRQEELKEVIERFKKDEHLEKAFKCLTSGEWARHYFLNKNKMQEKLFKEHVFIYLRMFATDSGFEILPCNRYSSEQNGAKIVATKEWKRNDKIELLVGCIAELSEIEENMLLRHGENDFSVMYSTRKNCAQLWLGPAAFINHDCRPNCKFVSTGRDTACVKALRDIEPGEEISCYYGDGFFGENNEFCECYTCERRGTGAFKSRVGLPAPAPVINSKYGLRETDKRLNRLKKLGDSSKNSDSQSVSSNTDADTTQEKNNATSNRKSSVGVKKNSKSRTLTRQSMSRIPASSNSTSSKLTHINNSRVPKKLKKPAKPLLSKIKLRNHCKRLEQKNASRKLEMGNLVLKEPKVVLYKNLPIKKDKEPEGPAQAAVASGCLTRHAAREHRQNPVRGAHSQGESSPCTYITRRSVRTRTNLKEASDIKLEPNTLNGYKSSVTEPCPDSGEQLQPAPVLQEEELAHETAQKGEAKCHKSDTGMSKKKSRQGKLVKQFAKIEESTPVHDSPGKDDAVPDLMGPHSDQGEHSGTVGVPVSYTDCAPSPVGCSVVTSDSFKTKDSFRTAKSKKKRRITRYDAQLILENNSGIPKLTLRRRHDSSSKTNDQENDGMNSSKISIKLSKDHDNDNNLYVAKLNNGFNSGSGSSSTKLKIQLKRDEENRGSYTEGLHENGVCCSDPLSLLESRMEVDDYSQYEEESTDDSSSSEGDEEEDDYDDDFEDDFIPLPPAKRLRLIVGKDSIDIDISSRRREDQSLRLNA", "assay": "Inhibition of recombinant human 6His-(Tev)-G-SUV420H1 (69 to 335 residues) using Biotin-tagged H4K20me1 and [3H-SAM] as substrate incubated for 2 hrs by scintillation proximity assay"}, "[8]": {"assay": "Inhibition of H4K20me1 in human LNCaP cells incubated for 48 hrs by Western blotting analysis", "assay_type": "functional, cell-based"}, "[9]": {"assay": "Inhibition of H4K20me3 in human U2OS cells incubated for 48 hrs by Western blotting analysis", "assay_type": "functional, cell-based"}, "Adenosine receptor A1": {"target": "T3, Adenosine receptor A1 (Homo sapiens, UniProt P30542)", "T3 sequence (P30542 whole entry)": "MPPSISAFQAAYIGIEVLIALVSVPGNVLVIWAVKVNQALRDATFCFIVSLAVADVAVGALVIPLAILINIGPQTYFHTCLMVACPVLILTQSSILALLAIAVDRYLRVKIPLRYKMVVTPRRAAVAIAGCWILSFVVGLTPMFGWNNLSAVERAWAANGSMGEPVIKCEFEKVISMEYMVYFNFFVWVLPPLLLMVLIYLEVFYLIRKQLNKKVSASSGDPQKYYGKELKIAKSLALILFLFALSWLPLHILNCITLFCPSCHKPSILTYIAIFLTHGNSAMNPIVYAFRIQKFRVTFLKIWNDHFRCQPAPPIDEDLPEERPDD", "assay": "Inhibition of human Adenosine receptor A1 assessed as inhibition constant"}, "HFF [10]": {"test_system": "HFF", "assay": "Cytotoxicity against HFF cells assessed as cell viability at 1.5 to 100 uM incubated after 72 hrs", "assay_type": "toxicity, cell-based", "settings": "human, dose 1.5-100 µM"}, "[11]": {"target": "Kappa-type opioid receptor (Homo sapiens, UniProt P41145)", "sequence (P41145 whole entry)": "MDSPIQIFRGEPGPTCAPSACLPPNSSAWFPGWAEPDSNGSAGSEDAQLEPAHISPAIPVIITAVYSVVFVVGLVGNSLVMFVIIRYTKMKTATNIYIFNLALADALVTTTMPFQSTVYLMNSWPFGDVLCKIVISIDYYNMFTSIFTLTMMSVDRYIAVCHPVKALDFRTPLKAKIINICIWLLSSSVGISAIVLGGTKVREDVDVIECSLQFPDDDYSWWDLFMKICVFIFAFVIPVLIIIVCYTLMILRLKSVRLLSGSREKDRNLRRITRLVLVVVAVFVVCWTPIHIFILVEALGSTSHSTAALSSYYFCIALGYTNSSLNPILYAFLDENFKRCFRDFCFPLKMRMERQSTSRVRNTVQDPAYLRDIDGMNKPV", "assay": "Inhibition of human Kappa-type opioid receptor assessed as inhibition constant"}, "B-cell [12]": {"test_system": "B-cell", "assay": "Induction of DNA repair in mouse B cells assessed as inhibition in ability of splenic cells to switch from IgM to IgG1 at 1 uM incubated for 2 days in the presence of LPS by flow cytometry analysis (Rvb=9.59%)", "assay_type": "functional", "settings": "48 h, time 2 day"}, "[13]": {"assay": "Inhibition of H4K20me3 in human LNCaP cells incubated for 48 hrs by Western blotting analysis", "assay_type": "functional, cell-based"}, "[14]": {"assay": "Inhibition of H4K20me1 in human PC-3 cells assessed as increase in methylation level incubated for 72 hrs by Hoechst staining based high content microscopy", "assay_type": "functional, cell-based", "settings": "PC-3, 72 h"}, "[15]": {"assay": "Inhibition of H4K20me2 in human U2OS cells incubated for 48 hrs by Western blotting analysis", "assay_type": "functional, cell-based"}, "[16]": {"target": "Delta-type opioid receptor (Homo sapiens, UniProt P41143)", "sequence (P41143 whole entry)": "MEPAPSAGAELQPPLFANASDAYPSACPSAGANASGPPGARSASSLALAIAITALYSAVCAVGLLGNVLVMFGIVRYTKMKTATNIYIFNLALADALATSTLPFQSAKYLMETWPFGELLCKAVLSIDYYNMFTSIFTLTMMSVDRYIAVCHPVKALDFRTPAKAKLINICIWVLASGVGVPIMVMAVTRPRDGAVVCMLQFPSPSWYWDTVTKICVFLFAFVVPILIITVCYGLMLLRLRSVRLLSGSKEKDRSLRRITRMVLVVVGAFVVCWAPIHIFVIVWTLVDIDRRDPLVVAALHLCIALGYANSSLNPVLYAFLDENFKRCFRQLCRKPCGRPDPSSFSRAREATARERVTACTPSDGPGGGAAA", "assay": "Inhibition of human Delta-type opioid receptor assessed as inhibition constant"}, "HFF [17]": {"test_system": "HFF", "assay": "Cytotoxicity against HFF cells assessed as cell viability upto 12.5 uM incubated for 48 hrs", "assay_type": "toxicity, cell-based", "settings": "human"}, "B-cell [18]": {"test_system": "B-cell", "assay": "Induction of DNA repair in mouse B cells assessed as inhibition in ability of splenic cells to switch from IgM to IgE at 1 uM incubated for 3 days in the presence of LPS plus IL-4 by flow cytometry analysis (Rvb=1.97%)", "assay_type": "functional", "settings": "72 h, time 3 day"}, "U2OS": {"test_system": "U2OS", "assay": "Antiproliferative activity against human U2OS cells assessed as change in number of nuclei incubated for 72 hrs by Hoechst staining based high content microscopy", "assay_type": "functional, cell-based"}, "[19]": {"assay": "Inhibition of H4K20me1 in human U2OS cells incubated for 48 hrs by Western blotting analysis", "assay_type": "functional, cell-based"}, "MEF": {"test_system": "MEF", "assay": "Antiproliferative activity against mouse MEF cells assessed as loss of pericentric H4K20me3 at 10 uM incubated for 3 days by immunofluorescence analysis relative to control", "assay_type": "functional", "settings": "time 3 day"}, "[20]": {"assay": "Inhibition of human GABA-gated Cl- channel assessed as inhibition constant"}, "B-cell [21]": {"test_system": "B-cell", "assay": "Induction of DNA repair in mouse B cells assessed as inhibition in ability of splenic cells to switch from IgM to IgG3 at 10 uM incubated for 4 days in the presence of LPS by flow cytometry analysis (Rvb=5.71%)", "assay_type": "functional", "settings": "96 h, time 4 day"}, "[22]": {"target": "KV channel (voltage-gated potassium channel) (Homo sapiens, UniProt O43525+O43526+O95259+P16389+P17658+P22001+P22459+P22460+P48547+P51787+P56696+Q03721+Q09470+Q12809+Q14003+Q14721+Q16322+Q6PIU1+Q8NCM2+Q8TAE7+Q8TDN1+Q8TDN2+Q92953+Q96KK3+Q96L42+Q96PR1+Q96RP8+Q9BQ31+Q9H252+Q9H3M0+Q9NR82+Q9NS40+Q9NSA2+Q9NZV8+Q9UIX4+Q9UJ96+Q9UK17+Q9ULD8+Q9ULS6+Q9UQ05)", "assay": "Inhibition of human KV channel at 10 uM relative to control", "assay_type": "protein assay"}, "B-cell [23]": {"test_system": "B-cell", "assay": "Induction of DNA repair in mouse B cells assessed as inhibition in ability of splenic cells to switch from IgM to IgG1 at 10 uM incubated for 2 days in the presence of LPS by flow cytometry analysis (Rvb=9.59%)", "assay_type": "functional", "settings": "48 h, time 2 day"}, "[24]": {"target": "L-type calcium channel (verapamil binding site) (Homo sapiens, UniProt O60840+Q01668+Q13698+Q13936)", "assay": "Inhibition of human L-type calcium channel verapamil binding site at 10 uM relative to control", "assay_type": "protein assay"}, "[25]": {"assay": "Inhibition of H4K20me2 in human LNCaP cells incubated for 48 hrs by Western blotting analysis", "assay_type": "functional, cell-based"}, "Adenosine receptor A2a": {"target": "Adenosine receptor A2a (Homo sapiens, UniProt P29274)", "sequence (P29274 whole entry)": "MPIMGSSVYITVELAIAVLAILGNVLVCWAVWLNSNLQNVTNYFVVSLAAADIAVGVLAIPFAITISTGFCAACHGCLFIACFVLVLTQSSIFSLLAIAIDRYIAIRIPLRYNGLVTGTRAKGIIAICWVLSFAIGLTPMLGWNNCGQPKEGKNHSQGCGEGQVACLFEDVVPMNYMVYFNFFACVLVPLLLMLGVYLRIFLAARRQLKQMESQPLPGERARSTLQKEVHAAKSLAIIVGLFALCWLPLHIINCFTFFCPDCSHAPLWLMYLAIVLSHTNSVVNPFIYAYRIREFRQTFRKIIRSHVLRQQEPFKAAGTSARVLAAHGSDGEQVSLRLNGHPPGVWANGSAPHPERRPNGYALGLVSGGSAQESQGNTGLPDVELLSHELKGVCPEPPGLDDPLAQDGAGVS", "assay": "Inhibition of human Adenosine receptor A2a assessed as inhibition constant"}, "B-cell [26]": {"test_system": "B-cell", "assay": "Induction of DNA repair in mouse B cells assessed as inhibition in ability of splenic cells to switch from IgM to IgE at 10 uM incubated for 3 days in the presence of LPS plus IL-4 by flow cytometry analysis (Rvb=1.97%)", "assay_type": "functional", "settings": "72 h, time 3 day"}}, "data": [{"smiles": "Clc1cc2c(NC3CCCC3)nnc(-c3ccncc3)c2cc1Cl", "values": [{"measurement": "IC50", "setting": "[1]", "value": 144, "unit": "nM"}, {"measurement": "IC50", "setting": "PC-3", "value": "> 20000", "unit": "nM"}, {"measurement": "inhibition at 10 µM", "setting": "[2]", "value": 32, "unit": "%"}, {"measurement": "Ki", "setting": "Adenosine receptor A3", "value": 2000, "unit": "nM"}, {"measurement": "IC50", "setting": "[3]", "value": 521, "unit": "nM"}, {"measurement": "IC50", "setting": "[4]", "value": 1910, "unit": "nM"}, {"measurement": "IC50", "setting": "[5]", "value": 502, "unit": "nM"}, {"measurement": "Ki", "setting": "Substance-K receptor", "value": 4100, "unit": "nM"}, {"measurement": "inhibition at 1 µM", "setting": "B-cell [6]", "value": 3.79, "unit": "%"}, {"measurement": "IC50", "setting": "[7]", "value": 25, "unit": "nM"}, {"measurement": "IC50", "setting": "[8]", "value": 799, "unit": "nM"}, {"measurement": "IC50", "setting": "[9]", "value": 370, "unit": "nM"}, {"measurement": "Ki", "setting": "Adenosine receptor A1", "value": 21, "unit": "nM"}, {"measurement": "Activity", "setting": "HFF [10]", "value": "Non-Toxic"}, {"measurement": "Ki", "setting": "[11]", "value": "> 10000", "unit": "nM"}, {"measurement": "inhibition at 1 µM", "setting": "B-cell [12]", "value": 5.87, "unit": "%"}, {"measurement": "IC50", "setting": "[13]", "value": 211, "unit": "nM"}, {"measurement": "IC50", "setting": "[14]", "value": 686, "unit": "nM"}, {"measurement": "IC50", "setting": "[15]", "value": 262, "unit": "nM"}, {"measurement": "Ki", "setting": "[16]", "value": 9000, "unit": "nM"}, {"measurement": "Activity", "setting": "HFF [17]", "value": "Non-Toxic"}, {"measurement": "inhibition at 1 µM", "setting": "B-cell [18]", "value": 1.47, "unit": "%"}, {"measurement": "IC50", "setting": "U2OS", "value": "> 20000", "unit": "nM"}, {"measurement": "IC50", "setting": "[19]", "value": 736, "unit": "nM"}, {"measurement": "Activity", "setting": "MEF", "value": 97, "unit": "%"}, {"measurement": "Ki", "setting": "[20]", "value": 1800, "unit": "nM"}, {"measurement": "inhibition at 10 µM", "setting": "B-cell [21]", "value": 3.85, "unit": "%"}, {"measurement": "inhibition at 10 µM", "setting": "[22]", "value": -18, "unit": "%"}, {"measurement": "inhibition at 10 µM", "setting": "B-cell [23]", "value": 3.68, "unit": "%"}, {"measurement": "inhibition at 10 µM", "setting": "[24]", "value": -4, "unit": "%"}, {"measurement": "IC50", "setting": "[25]", "value": 511, "unit": "nM"}, {"measurement": "Ki", "setting": "Adenosine receptor A2a", "value": 28, "unit": "nM"}, {"measurement": "inhibition at 10 µM", "setting": "B-cell [26]", "value": 0.73, "unit": "%"}]}]}
